*1 amine or outer side, *2 acyl side, *3 side chain or, on linkers, in order; H or OH if unused. Where a SMILES comes first, the peptide text is derived from it. Bridges are numbered along the chain shown (N, C = ends). Roman numbers before positions name the chains, in order. Side-chain parts run from the residue outwards. [ ]: non-standard residue; d: D form. The star is where a group is joined. C18 diacid = O=C(O)CCCCCCCCCCCCCCCCC(=O)*; γGlu = O=C(O)[C@H](CCC(=O)[*:2])N[*:1]; Desaminohistidyl = O=C(CCc1c[nH]cn1)*; AEEA = NCCOCCOCC(=O)O; Aib = CC(C)(N)C(=O)O
System: not listed separately
Assay: Assay (V): chemical stability assessment by RP-UPLC
Format: physicochemical
Details: 14 days at 37° C. in phosphate buffer (pH 7.3)
Protocol: Assay (V): Chemical Stability Assessment
The purpose of this assay is to assess the chemical stability of the GLP-1 derivatives of the present invention in aqueous solutions.
Chemical stability of GLP-1 derivatives may be investigated by RP-UPLC separation and UV detection. Lyophilized samples are dissolved in a 8 mM Phosphate buffer pH 8.6, followed by adjustment to pH 7.3 using HCl to a final concentration of 333 μM. Samples are incubated for 14 days at 5° C. and 37° C. followed by RP-UPLC analysis. Purity is defined as the area percentage of the main peak in relation to the total area of all integrated peaks in each chromatogram. Purity loss, also referred to herein as chemical degradation, after 14 days at 37° C. is determined as the difference in purity between the samples incubated at 5° C. and 37° C., divided by the purity of the sample after incubation for 14 days at 5° C.
RP-UPLC analysis is performed using a Waters BEH130 2.1 mm×150 mm, 1.7 μm column operated at 50° C. and a flow rate of 0.4 mL/min using a mobile phase system consisting of A: 0.05% TFA in MQ-water, and B: 0.05% TFA in Acetonitrile. UV-detection is performed at 215 nm. The typical gradient profile used for most of the samples is shown below.
For some individual derivatives eluting at substantially different retention times compared with the majority of derivatives, some adjustments to the gradient profile are made to better enable purity assessment comparison across samples.

| SMILES | Chemical stability: Chemical degradation over 14 days at 37° C. [%] |
| --- | --- |
| CC[C@H](C)[C@H](NC(=O)[C@H](Cc1ccccc1)NC(=O)[C@H](CCC(=O)O)NC(=O)[C@H](CCCNC(=N)N)NC(=O)[C@H](C)NC(=O)[C@H](C)NC(=O)[C@H](CCC(N)=O)NC(=O)[C@H](CCC(=O)O)NC(=O)[C@H](CCC(=O)O)NC(=O)[C@H](CC(C)C)NC(=O)[C@H](Cc1ccc(O)cc1)NC(=O)[C@H](CCCCN)NC(=O)[C@H](CO)NC(=O)[C@@H](NC(=O)[C@H](CC(=O)O)NC(=O)[C@H](CO)NC(=O)[C@@H](NC(=O)[C@H](Cc1ccccc1)NC(=O)[C@@H](NC(=O)CNC(=O)[C@H](Cc1c[nH]cn1)NC(=O)C(C)(C)NC(=O)CCc1c[nH]cn1)[C@@H](C)O)[C@@H](C)O)C(C)C)C(=O)N[C@@H](C)C(=O)N[C@@H](Cc1c[nH]c2ccccc12)C(=O)N[C@@H](CC(C)C)C(=O)N[C@@H](CC(C)C)C(=O)N[C@@H](CCCCNC(=O)CNC(=O)[C@H](CO)NC(=O)[C@H](CCC(=O)O)NC(=O)CNC(=O)[C@H](CO)NC(=O)CC[C@H](NC(=O)CC[C@H](NC(=O)CCCCCCCCCCCCCCCCC(=O)O)C(=O)O)C(=O)O)C(=O)N[C@H](C(N)=O)[C@@H](C)O [Example 3, N^ε34-[2-[[(2S)-2-[[(2S)-4-carboxy-2-[[2-[[(2S)-2-[[(4S)-4-carboxy-4-[[(4S)-4-carboxy-4-(17-carboxyheptadecanoylamino)butanoyl]amino]butanoyl]amino]-3-hydroxypropanoyl]amino]acetyl]amino]butanoyl]amino]-3-hydroxypropanoyl]amino]acetyl]-[Imp7,Aib8,His9,Lys18,Glu22,Arg26,Leu33,Thr35]-GLP-1-(7-35)-peptide amide] (I: Desaminohistidyl-[Aib]HGTFTSDVSKYLEEQAAREFIAWLLKT-NH2 / II: {C18 diacid-γGlu-γGlu}-SGESG; amide I:27-II:C) | −0.3 |
| CC[C@H](C)[C@H](NC(=O)[C@H](Cc1ccccc1)NC(=O)[C@H](CCC(=O)O)NC(=O)[C@H](CCCNC(=N)N)NC(=O)[C@H](C)NC(=O)[C@H](C)NC(=O)[C@H](CCC(N)=O)NC(=O)[C@H](CCC(=O)O)NC(=O)[C@H](CCC(=O)O)NC(=O)[C@H](CC(C)C)NC(=O)[C@H](Cc1ccc(O)cc1)NC(=O)[C@H](CCCCN)NC(=O)[C@H](CO)NC(=O)[C@@H](NC(=O)[C@H](CC(=O)O)NC(=O)[C@H](CO)NC(=O)[C@@H](NC(=O)[C@H](Cc1ccccc1)NC(=O)[C@@H](NC(=O)CNC(=O)[C@H](Cc1c[nH]cn1)NC(=O)C(C)(C)NC(=O)CCc1c[nH]cn1)[C@@H](C)O)[C@@H](C)O)C(C)C)C(=O)N[C@@H](C)C(=O)N[C@@H](Cc1c[nH]c2ccccc12)C(=O)N[C@@H](CC(C)C)C(=O)N[C@@H](CC(C)C)C(=O)N[C@@H](CCCCNC(=O)COCCOCCNC(=O)COCCOCCNC(=O)CC[C@H](NC(=O)CC[C@H](NC(=O)CCCCCCCCCCCCCCCCC(=O)O)C(=O)O)C(=O)O)C(=O)N[C@H](C(N)=O)[C@@H](C)O [Example 5, N^ε34-[2-[2-[2-[[2-[2-[2-[[(4S)-4-carboxy-4-[[(4S)-4-carboxy-4-(17-carboxyheptadecanoylamino)butanoyl]amino]butanoyl]amino]ethoxy]ethoxy]acetyl]amino]ethoxy]ethoxy]acetyl]-[Imp7,Aib8,His9,Lys18,Glu22,Arg26,Leu33,Thr35]-GLP-1-(7-35)-peptide amide] (Desaminohistidyl-[Aib]HGTFTSDVSKYLEEQAAREFIAWLLK([AEEA-AEEA-γGlu-γGlu-C18 diacid])T-NH2) | 0.4 |
| CC[C@H](C)[C@H](NC(=O)[C@H](Cc1ccccc1)NC(=O)[C@H](CCC(=O)O)NC(=O)[C@H](CCCNC(=N)N)NC(=O)[C@H](C)NC(=O)[C@H](C)NC(=O)[C@H](CCC(N)=O)NC(=O)CNC(=O)[C@H](CCC(=O)O)NC(=O)[C@H](CC(C)C)NC(=O)[C@H](Cc1ccc(O)cc1)NC(=O)[C@H](CCCNC(=N)N)NC(=O)[C@H](CO)NC(=O)[C@@H](NC(=O)[C@H](CC(=O)O)NC(=O)[C@H](CO)NC(=O)[C@@H](NC(=O)[C@H](Cc1ccccc1)NC(=O)[C@@H](NC(=O)CNC(=O)[C@H](Cc1c[nH]cn1)NC(=O)C(C)(C)NC(=O)CCc1c[nH]cn1)[C@@H](C)O)[C@@H](C)O)C(C)C)C(=O)N[C@@H](C)C(=O)N[C@@H](Cc1c[nH]c2ccccc12)C(=O)N[C@@H](CC(C)C)C(=O)N[C@@H](CC(C)C)C(=O)N[C@@H](CCCCNC(=O)CNC(=O)[C@H](CO)NC(=O)[C@H](CCC(=O)O)NC(=O)CNC(=O)[C@H](CO)NC(=O)CC[C@H](NC(=O)CC[C@H](NC(=O)CCCCCCCCCCCCCCCCC(=O)O)C(=O)O)C(=O)O)C(=O)N[C@H](C(N)=O)[C@@H](C)O [Example 8, N^ε34-[2-[[(2S)-2-[[(2S)-4-carboxy-2-[[2-[[(2S)-2-[[(4S)-4-carboxy-4-[[(4S)-4-carboxy-4-(17-carboxyheptadecanoylamino)butanoyl]amino]butanoyl]amino]-3-hydroxypropanoyl]amino]acetyl]amino]butanoyl]amino]-3-hydroxypropanoyl]amino]acetyl]-[Imp7,Aib8,His9,Arg18,Arg26,Leu33,Thr35]-GLP-1-(7-35)-peptide amide] (I: Desaminohistidyl-[Aib]HGTFTSDVSRYLEGQAAREFIAWLLKT-NH2 / II: {C18 diacid-γGlu-γGlu}-SGESG; amide I:27-II:C) | 1.6 |
| CC[C@H](C)[C@H](NC(=O)[C@H](Cc1ccccc1)NC(=O)[C@H](CCC(=O)O)NC(=O)[C@H](CCCNC(=N)N)NC(=O)[C@H](C)NC(=O)[C@H](C)NC(=O)[C@H](CCCNC(=N)N)NC(=O)[C@H](C)NC(=O)[C@H](CCC(=O)O)NC(=O)[C@H](CC(C)C)NC(=O)[C@H](Cc1ccc(O)cc1)NC(=O)[C@H](CCCCN)NC(=O)[C@H](CO)NC(=O)[C@@H](NC(=O)[C@H](CC(=O)O)NC(=O)[C@H](CO)NC(=O)[C@@H](NC(=O)[C@H](Cc1ccccc1)NC(=O)[C@@H](NC(=O)CNC(=O)[C@H](Cc1c[nH]cn1)NC(=O)C(C)(C)NC(=O)CCc1c[nH]cn1)[C@@H](C)O)[C@@H](C)O)C(C)C)C(=O)N[C@@H](C)C(=O)N[C@@H](Cc1c[nH]c2ccccc12)C(=O)N[C@@H](CC(C)C)C(=O)N[C@@H](CC(C)C)C(=O)N[C@@H](CCCCNC(=O)CC[C@H](NC(=O)COCCOCCNC(=O)COCCOCCNC(=O)CC[C@H](NC(=O)CC[C@H](NC(=O)CCCCCCCCCCCCCCCCC(=O)O)C(=O)O)C(=O)O)C(=O)O)C(=O)NCC(=O)NCC(=O)NCC(=O)O [Example 31, N^ε34-[(4S)-4-carboxy-4-[[2-[2-[2-[[2-[2-[2-[[(4S)-4-carboxy-4-[[(4S)-4-carboxy-4-(17-carboxyheptadecanoylamino)butanoyl]amino]butanoyl]amino]ethoxy]ethoxy]acetyl]amino]ethoxy]ethoxy]acetyl]amino]butanoyl]-[Imp7,Aib8,His9,Lys18,Ala22,Arg23,Arg26,Leu33,Gly36]-GLP-1-(7-37)-peptide] (Desaminohistidyl-[Aib]HGTFTSDVSKYLEARAAREFIAWLLK([γGlu-AEEA-AEEA-γGlu-γGlu-C18 diacid])GGG-OH) | 0.1 |

Target: T1, human GLP-1 receptor (Homo sapiens, UniProt P43220)
T1 construct: expressed in transfected cells; host or cells: membranes of BHK cells, parent line BHKTS13, clone FCW467-12A
Assay: Assay (I)(a): GLP-1 receptor potency, CRE luciferase reporter gene assay in BHK cells
Format: cell-based
Details: BHK cells expressing human GLP-1 receptor, read-out: EC50 GLP-1R
In short: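 BHK cells (clone FCW467-12A/KZ10-1), 5×10EE3/well, exposed 3 h at 37° C to compound at 1×10EE-13 to 1×10EE-6 M final in medium with 2% ovalbumin and 0.2% Pluronic F-68. Luciferase luminescence read; EC50 (pM) from four-parameter fit.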

T1 sequence (P43220 24-463): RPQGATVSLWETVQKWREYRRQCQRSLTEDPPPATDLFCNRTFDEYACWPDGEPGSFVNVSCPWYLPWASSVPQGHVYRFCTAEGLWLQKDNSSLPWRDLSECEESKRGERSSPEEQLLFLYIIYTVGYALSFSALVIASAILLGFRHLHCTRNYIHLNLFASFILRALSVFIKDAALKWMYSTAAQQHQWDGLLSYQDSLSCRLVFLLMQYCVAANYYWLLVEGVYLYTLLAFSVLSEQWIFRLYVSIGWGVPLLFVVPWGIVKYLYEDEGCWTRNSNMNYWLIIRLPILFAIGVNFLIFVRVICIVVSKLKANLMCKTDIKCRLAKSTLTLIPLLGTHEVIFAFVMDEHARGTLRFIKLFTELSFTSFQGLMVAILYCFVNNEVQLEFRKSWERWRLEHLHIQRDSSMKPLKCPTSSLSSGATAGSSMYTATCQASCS

| SMILES | EC50 [pM] |
| --- | --- |
| CC[C@H](C)[C@H](NC(=O)[C@H](Cc1ccccc1)NC(=O)[C@H](CCC(=O)O)NC(=O)[C@H](CCCNC(=N)N)NC(=O)[C@H](C)NC(=O)[C@H](C)NC(=O)[C@H](CCC(N)=O)NC(=O)[C@H](CCC(=O)O)NC(=O)[C@H](CCC(=O)O)NC(=O)[C@H](CC(C)C)NC(=O)[C@H](Cc1ccc(O)cc1)NC(=O)[C@H](CCCCN)NC(=O)[C@H](CO)NC(=O)[C@@H](NC(=O)[C@H](CC(=O)O)NC(=O)[C@H](CO)NC(=O)[C@@H](NC(=O)[C@H](Cc1ccccc1)NC(=O)[C@@H](NC(=O)CNC(=O)[C@H](Cc1c[nH]cn1)NC(=O)C(C)(C)NC(=O)CCc1c[nH]cn1)[C@@H](C)O)[C@@H](C)O)C(C)C)C(=O)N[C@@H](C)C(=O)N[C@@H](Cc1c[nH]c2ccccc12)C(=O)N[C@@H](CC(C)C)C(=O)N[C@@H](CC(C)C)C(=O)N[C@@H](CCCCNC(=O)CNC(=O)[C@H](CO)NC(=O)[C@H](CCC(=O)O)NC(=O)CNC(=O)[C@H](CO)NC(=O)CC[C@H](NC(=O)CC[C@H](NC(=O)CCCCCCCCCCCCCCCCC(=O)O)C(=O)O)C(=O)O)C(=O)N[C@H](C(N)=O)[C@@H](C)O [Example 3, N^ε34-[2-[[(2S)-2-[[(2S)-4-carboxy-2-[[2-[[(2S)-2-[[(4S)-4-carboxy-4-[[(4S)-4-carboxy-4-(17-carboxyheptadecanoylamino)butanoyl]amino]butanoyl]amino]-3-hydroxypropanoyl]amino]acetyl]amino]butanoyl]amino]-3-hydroxypropanoyl]amino]acetyl]-[Imp7,Aib8,His9,Lys18,Glu22,Arg26,Leu33,Thr35]-GLP-1-(7-35)-peptide amide] (I: Desaminohistidyl-[Aib]HGTFTSDVSKYLEEQAAREFIAWLLKT-NH2 / II: {C18 diacid-γGlu-γGlu}-SGESG; amide I:27-II:C) | 5 |
| CC[C@H](C)[C@H](NC(=O)[C@H](Cc1ccccc1)NC(=O)[C@H](CCC(=O)O)NC(=O)[C@H](CCCNC(=N)N)NC(=O)[C@H](C)NC(=O)[C@H](C)NC(=O)[C@H](CCCNC(=N)N)NC(=O)CNC(=O)[C@H](CCC(=O)O)NC(=O)[C@H](CC(C)C)NC(=O)[C@H](Cc1ccc(O)cc1)NC(=O)[C@H](CCCNC(=N)N)NC(=O)[C@H](CO)NC(=O)[C@@H](NC(=O)[C@H](CC(=O)O)NC(=O)[C@H](CO)NC(=O)[C@@H](NC(=O)[C@H](Cc1ccccc1)NC(=O)[C@@H](NC(=O)CNC(=O)[C@H](Cc1c[nH]cn1)NC(=O)C(C)(C)NC(=O)CCc1c[nH]cn1)[C@@H](C)O)[C@@H](C)O)C(C)C)C(=O)N[C@@H](C)C(=O)N[C@@H](Cc1c[nH]c2ccccc12)C(=O)N[C@@H](CC(C)C)C(=O)N[C@@H](CC(C)C)C(=O)N[C@@H](CCCCNC(=O)CC[C@H](NC(=O)CC[C@H](NC(=O)COCCOCCNC(=O)CC[C@H](NC(=O)CC[C@H](NC(=O)CCCCCCCCCCCCCCCCC(=O)O)C(=O)O)C(=O)O)C(=O)O)C(=O)O)C(=O)NCC(=O)N[C@@H](C)C(=O)NCC(=O)O [Example 35, N^ε34-[(4S)-4-carboxy-4-[[(4S)-4-carboxy-4-[[2-[2-[2-[[(4S)-4-carboxy-4-[[(4S)-4-carboxy-4-(17-carboxyheptadecanoylamino)butanoyl]amino]butanoyl]amino]ethoxy]ethoxy]acetyl]amino]butanoyl]amino]butanoyl]-[Imp7,Aib8,His9,Arg18,Arg23,Arg26,Leu33,Ala36]-GLP-1-(7-37)-peptide] (Desaminohistidyl-[Aib]HGTFTSDVSRYLEGRAAREFIAWLLK([γGlu-γGlu-AEEA-γGlu-γGlu-C18 diacid])GAG-OH) | 3 |
